Source: ChEMBL document CHEMBL1201862, “PubChem BioAssay data set” (2004)
Calls of active or inactive are those of the source.

Legend:
Cytochrome P450 2C19 = Cytochrome P450 2C19 (Homo sapiens, UniProt P33261); assay: Cytochrome panel assay with activity outcomes. Panel member name: p450-cyp2c19 Compounds with AC50 equal or less than 10 uM are considered active; assay type: functional; details: read-out: AC50
Cytochrome P450 2D6 = Cytochrome P450 2D6 (Homo sapiens, UniProt P10635);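 note: CYP2D6 member of a cytochrome P450 panel assay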
Sequence of Cytochrome P450 2D6 (P10635 whole entry): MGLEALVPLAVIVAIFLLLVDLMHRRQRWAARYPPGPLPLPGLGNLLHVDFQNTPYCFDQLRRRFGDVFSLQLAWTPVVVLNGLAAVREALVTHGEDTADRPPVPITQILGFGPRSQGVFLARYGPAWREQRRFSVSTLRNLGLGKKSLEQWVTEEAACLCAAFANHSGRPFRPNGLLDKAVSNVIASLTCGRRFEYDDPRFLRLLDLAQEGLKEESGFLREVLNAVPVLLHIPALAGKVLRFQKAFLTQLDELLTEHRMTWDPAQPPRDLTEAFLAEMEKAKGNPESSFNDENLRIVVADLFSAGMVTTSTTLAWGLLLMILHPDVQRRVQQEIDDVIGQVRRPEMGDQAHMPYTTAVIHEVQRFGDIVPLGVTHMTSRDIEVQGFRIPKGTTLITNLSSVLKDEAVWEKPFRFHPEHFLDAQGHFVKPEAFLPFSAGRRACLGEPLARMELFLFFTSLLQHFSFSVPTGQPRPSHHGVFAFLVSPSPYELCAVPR

[1] = target: Delta-type opioid receptor (Homo sapiens, UniProt P41143); assay: Counterscreen for agonists of heterodimerization of the mu 1 (OPRM1) and delta 1 (OPRD1) opioid receptors: Luminescence-based cell-based high throughput dose response assay to identify agonists of OPRD1 homodimerization. [Related pubchem assays (depositor defined):AID504326, AID504355, AID504692, AID504904, AID504905]; assay type: functional
Sequence of Delta-type opioid receptor (P41143 whole entry): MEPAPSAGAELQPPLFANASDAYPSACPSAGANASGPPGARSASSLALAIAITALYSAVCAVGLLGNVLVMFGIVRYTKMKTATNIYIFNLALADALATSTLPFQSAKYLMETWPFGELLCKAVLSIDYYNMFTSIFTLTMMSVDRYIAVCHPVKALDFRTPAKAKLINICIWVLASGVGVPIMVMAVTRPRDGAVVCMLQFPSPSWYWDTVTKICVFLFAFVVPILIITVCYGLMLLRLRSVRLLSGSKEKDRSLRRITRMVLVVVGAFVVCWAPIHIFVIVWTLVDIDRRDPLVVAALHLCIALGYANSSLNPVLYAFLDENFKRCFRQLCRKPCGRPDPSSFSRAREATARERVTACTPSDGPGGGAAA

Cytochrome P450 2C9 = Cytochrome P450 2C9 (Homo sapiens, UniProt P11712)
Sequence of Cytochrome P450 2C9 (P11712 whole entry): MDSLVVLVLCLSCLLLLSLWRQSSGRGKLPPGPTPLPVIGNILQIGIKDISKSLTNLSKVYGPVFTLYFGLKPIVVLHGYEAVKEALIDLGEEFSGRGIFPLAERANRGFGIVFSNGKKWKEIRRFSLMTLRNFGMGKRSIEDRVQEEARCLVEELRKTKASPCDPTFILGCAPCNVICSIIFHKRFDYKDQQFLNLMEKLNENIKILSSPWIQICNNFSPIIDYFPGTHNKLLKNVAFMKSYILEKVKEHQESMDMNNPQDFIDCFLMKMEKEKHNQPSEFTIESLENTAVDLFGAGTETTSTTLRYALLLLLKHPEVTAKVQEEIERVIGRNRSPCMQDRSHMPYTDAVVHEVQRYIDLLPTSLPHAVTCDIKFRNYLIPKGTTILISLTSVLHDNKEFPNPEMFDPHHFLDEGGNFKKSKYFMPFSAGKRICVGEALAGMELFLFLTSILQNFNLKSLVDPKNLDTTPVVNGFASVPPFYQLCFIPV

[2] = target: T1, Short transient receptor potential channel 4 (Mus musculus, UniProt Q9QUQ5); assay: calcium entry via TRPC4 opening agents – cell-based, HEK293 TRPC4/mu-opioid, Fluo-4 calcium, dose response (AID 434937); assay type: functional
T1 sequence (Q9QUQ5 whole entry): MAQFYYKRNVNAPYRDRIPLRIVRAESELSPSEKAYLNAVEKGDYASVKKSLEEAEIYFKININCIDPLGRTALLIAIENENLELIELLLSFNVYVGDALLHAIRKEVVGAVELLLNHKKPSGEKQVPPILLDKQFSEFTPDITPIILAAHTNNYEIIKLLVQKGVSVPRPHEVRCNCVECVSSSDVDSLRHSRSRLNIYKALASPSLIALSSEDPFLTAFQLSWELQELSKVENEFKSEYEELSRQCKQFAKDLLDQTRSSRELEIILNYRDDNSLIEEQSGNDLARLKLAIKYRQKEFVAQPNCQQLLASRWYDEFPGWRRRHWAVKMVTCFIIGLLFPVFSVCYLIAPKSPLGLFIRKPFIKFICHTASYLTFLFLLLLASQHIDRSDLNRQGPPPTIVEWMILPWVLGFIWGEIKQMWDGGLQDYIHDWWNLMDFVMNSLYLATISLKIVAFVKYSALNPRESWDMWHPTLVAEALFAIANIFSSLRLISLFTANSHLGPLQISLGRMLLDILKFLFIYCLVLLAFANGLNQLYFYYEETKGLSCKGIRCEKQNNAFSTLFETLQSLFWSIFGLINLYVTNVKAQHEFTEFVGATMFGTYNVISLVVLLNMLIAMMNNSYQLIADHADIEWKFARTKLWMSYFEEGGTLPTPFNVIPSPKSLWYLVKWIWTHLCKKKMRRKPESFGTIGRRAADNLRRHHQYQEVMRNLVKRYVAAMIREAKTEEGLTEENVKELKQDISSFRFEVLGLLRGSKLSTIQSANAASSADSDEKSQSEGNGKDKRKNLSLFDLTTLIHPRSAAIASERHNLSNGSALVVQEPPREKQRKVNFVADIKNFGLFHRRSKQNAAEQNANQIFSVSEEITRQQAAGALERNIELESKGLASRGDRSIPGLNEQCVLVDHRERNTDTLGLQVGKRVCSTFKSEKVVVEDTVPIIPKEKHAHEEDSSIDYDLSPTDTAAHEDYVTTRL

[3] = target: 5-hydroxytryptamine receptor 5A (Homo sapiens, UniProt P47898); assay: Counterscreen for agonists of OPRM1-OPRD1 heterodimerization: luminescence-based cell-based high throughput dose response assay to identify agonists of 5-hydroxytryptamine (serotonin) 5A receptor (HTR5A). [Related pubchem assays (depositor defined):AID504326, AID504355, AID504692, AID504904, AID504905]; assay type: functional
Sequence of 5-hydroxytryptamine receptor 5A (P47898 whole entry): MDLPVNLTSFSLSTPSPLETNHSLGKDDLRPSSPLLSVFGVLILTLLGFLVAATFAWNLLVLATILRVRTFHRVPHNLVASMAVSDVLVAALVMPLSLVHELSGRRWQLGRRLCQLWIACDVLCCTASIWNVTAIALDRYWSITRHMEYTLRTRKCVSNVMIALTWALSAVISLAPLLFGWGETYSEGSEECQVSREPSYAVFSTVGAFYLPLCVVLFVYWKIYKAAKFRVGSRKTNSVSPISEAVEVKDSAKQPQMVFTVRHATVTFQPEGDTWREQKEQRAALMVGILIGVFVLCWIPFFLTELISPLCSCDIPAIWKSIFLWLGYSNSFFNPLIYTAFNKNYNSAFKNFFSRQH

Mu-type opioid receptor = Mu-type opioid receptor (Homo sapiens, UniProt P35372); assay: Counterscreen for agonists of heterodimerization of the mu 1 (OPRM1) and delta 1 (OPRD1) opioid receptors: Luminescence-based cell-based high throughput dose response assay to identify agonists of OPRM1 homodimerization.; assay type: functional;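 note: U2OS cells expressing OPRM1 and beta-arrestin as split beta-galactosidase partners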
Sequence of Mu-type opioid receptor (P35372 whole entry): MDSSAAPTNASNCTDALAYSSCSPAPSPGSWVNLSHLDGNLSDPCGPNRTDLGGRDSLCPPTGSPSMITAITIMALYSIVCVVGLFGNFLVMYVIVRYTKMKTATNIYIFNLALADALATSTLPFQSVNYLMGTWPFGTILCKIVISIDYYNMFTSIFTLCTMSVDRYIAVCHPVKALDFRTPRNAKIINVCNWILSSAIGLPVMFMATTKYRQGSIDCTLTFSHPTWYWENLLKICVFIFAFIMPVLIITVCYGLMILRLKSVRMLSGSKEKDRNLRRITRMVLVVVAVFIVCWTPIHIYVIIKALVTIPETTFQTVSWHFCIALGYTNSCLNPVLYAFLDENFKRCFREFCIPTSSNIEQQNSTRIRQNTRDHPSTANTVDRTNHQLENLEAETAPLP

[4] = target: T2, Zinc finger protein mex-5 (Caenorhabditis elegans, UniProt Q9XUB2); assay: potency of MEX-5 RNA-binding blockers – biochemical, C. elegans, fluorescence polarization, dose response (AID 1960)
T2 sequence (Q9XUB2 whole entry): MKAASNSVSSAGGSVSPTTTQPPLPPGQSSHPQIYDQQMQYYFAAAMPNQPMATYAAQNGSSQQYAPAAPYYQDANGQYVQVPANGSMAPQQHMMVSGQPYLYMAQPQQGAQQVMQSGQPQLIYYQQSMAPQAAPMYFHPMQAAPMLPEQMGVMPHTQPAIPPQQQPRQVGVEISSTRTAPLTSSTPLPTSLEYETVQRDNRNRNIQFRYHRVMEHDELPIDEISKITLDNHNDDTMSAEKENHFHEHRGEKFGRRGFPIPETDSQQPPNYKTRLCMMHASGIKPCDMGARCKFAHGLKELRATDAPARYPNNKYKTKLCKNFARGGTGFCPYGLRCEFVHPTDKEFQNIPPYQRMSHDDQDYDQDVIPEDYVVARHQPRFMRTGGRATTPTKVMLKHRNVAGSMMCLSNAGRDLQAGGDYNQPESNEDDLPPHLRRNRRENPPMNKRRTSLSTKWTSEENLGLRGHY

[5] = target: T3, Endoribonuclease toxin MazF (Escherichia coli K-12, UniProt P0AE70); assay: substrate-only fluorescence increase artefacts – biochemical, single-stranded RNase substrate, counter-screen for MazEF activator project, dose response (AID 588502); assay type: functional
T3 sequence (P0AE70 whole entry): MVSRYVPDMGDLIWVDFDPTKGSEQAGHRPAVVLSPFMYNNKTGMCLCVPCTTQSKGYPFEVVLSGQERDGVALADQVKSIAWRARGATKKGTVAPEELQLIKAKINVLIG

[6] = target: T3, Endoribonuclease toxin MazF; assay: activation of MazEF endoribonuclease cleavage – biochemical, fluorescence, single-stranded RNA substrate, uHTS hits, dose response (AID 588481); assay type: functional
[7] = target: T4, RNA-binding protein pos-1 (Caenorhabditis elegans, UniProt G5EF15); assay: disruptors of C. elegans POS-1 RNA interaction – biochemical, fluorescence polarization, dose response (AID 1964);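 note: purified POS-1 fused to maltose binding protein made in E. coli; potency of compounds blocking POS-1 binding to fluorescent RNA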
T4 sequence (G5EF15 whole entry): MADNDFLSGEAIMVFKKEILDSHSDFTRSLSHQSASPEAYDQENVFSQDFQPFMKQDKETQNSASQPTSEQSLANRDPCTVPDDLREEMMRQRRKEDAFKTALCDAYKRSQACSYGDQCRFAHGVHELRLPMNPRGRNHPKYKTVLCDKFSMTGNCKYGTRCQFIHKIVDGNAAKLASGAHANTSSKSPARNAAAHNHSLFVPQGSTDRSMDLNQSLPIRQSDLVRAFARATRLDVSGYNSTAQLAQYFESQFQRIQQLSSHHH

Cysteine protease ATG4B = target: T5, Cysteine protease ATG4B (Homo sapiens, UniProt Q9Y4P1); assay type: functional;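 note: Fluorescence-based dose-response confirmation assay measuring inhibition of ATG4B activity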
T5 sequence (Q9Y4P1 whole entry): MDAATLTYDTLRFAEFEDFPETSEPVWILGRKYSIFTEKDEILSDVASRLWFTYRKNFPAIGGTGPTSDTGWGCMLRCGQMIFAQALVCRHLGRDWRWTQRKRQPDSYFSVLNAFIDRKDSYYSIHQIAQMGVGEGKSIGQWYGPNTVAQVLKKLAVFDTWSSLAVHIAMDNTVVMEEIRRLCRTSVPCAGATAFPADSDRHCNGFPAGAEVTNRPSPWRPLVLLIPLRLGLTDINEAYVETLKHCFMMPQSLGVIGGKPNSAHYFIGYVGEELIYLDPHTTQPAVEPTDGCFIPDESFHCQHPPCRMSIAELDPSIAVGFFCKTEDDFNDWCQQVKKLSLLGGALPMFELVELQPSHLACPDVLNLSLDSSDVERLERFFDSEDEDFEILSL

Phospholipase A2 = Phospholipase A2 (Homo sapiens, UniProt P04054); assay type: functional;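 note: confirmatory dose-response counterscreen on phospholipase A2, testing hits that came from an ultra-high-throughput screen for ATG4B inhibitors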
Sequence of Phospholipase A2 (P04054 whole entry): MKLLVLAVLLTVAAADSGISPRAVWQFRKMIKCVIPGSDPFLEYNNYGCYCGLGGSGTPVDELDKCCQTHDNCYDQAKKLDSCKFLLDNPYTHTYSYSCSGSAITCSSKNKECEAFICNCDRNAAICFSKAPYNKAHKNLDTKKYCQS

DNA topoisomerase = target: T6, DNA topoisomerase (Yersinia pestis, UniProt A0A2S9PM60); assay: Yersinia topoisomerase I cleavage product accumulation – biochemical, cherry-pick, dose response (AID 588525)
T6 sequence (A0A2S9PM60 whole entry): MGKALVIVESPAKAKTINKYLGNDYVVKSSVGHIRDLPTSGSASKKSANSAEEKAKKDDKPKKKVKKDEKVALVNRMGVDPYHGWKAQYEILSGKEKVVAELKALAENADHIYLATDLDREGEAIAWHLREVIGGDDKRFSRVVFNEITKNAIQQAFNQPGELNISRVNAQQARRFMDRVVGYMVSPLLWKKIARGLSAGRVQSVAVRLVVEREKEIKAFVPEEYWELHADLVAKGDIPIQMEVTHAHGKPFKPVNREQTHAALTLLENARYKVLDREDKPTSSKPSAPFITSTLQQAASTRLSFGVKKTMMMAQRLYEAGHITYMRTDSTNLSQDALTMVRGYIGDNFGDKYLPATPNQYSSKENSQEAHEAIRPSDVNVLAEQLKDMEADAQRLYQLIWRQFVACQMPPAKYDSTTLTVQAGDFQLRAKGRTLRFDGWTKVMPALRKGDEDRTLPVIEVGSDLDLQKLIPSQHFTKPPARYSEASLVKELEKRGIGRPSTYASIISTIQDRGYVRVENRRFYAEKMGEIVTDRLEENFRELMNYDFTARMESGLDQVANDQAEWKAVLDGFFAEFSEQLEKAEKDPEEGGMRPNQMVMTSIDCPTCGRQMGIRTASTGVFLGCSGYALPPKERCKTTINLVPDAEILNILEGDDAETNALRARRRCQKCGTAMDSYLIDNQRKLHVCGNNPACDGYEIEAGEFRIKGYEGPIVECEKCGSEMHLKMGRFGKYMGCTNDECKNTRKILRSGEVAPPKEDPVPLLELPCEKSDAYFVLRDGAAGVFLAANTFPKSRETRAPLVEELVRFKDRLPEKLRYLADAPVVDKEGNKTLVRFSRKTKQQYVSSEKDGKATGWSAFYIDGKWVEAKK

[8] = viability of uninfected HEp-2 cells – cell-based, HTS, cytotoxicity control for RSV inhibitor project, dose response (AID 2410); assay type: functional; details: human respiratory syncytial virus
[9] = target: T7, Type-1 angiotensin II receptor (Homo sapiens, UniProt P30556); assay: antagonism of angiotensin II type 1 receptor – cell-based, uHTS hits, selectivity assay for APJ receptor antagonist project, dose response (AID 463214); assay type: functional;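 note: antagonist potency against angiotensin II stimulated AT1 response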
T7 sequence (P30556 whole entry): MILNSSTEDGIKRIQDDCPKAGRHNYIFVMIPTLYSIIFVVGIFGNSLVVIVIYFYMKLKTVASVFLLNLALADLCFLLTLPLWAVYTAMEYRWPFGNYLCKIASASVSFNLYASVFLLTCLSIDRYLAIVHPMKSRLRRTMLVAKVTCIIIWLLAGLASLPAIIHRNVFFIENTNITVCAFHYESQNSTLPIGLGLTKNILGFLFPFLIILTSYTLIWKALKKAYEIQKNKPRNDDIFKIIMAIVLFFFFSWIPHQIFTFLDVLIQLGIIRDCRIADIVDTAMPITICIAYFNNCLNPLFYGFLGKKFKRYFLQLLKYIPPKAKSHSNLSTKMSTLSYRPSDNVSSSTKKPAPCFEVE

Beta-galactosidase = Beta-galactosidase (Escherichia coli, UniProt Q8VNN2); assay: PubChem AID 485352; assay type: functional
Sequence of Beta-galactosidase (Q8VNN2 whole entry): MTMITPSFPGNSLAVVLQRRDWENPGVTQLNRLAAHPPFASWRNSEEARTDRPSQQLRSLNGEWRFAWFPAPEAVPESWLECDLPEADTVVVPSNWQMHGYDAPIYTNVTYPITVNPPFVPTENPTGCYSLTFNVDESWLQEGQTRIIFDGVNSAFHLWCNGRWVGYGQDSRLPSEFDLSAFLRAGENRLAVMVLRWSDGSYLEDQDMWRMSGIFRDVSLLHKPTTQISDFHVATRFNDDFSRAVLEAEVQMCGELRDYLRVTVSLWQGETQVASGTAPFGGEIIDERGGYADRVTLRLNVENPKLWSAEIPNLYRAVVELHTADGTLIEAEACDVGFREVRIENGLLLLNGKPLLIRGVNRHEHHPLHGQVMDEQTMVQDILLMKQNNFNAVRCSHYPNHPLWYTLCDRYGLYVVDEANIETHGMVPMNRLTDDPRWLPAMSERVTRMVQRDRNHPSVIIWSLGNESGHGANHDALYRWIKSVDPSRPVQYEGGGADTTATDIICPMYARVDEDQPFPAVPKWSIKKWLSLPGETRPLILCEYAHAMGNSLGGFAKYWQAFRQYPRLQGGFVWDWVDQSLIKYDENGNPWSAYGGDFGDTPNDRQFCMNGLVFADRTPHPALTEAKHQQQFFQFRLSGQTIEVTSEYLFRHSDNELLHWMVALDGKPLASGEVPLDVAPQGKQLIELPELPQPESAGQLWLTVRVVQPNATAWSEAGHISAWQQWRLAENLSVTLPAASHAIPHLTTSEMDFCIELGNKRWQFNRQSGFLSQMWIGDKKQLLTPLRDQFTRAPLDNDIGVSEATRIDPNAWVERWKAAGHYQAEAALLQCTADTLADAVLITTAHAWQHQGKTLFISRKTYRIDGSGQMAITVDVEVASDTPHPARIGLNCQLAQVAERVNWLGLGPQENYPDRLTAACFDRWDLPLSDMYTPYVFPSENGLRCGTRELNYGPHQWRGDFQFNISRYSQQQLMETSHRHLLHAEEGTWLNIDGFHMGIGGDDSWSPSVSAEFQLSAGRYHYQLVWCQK

[10] = target: T8, Heat shock factor protein 1 (Mus musculus, UniProt P38532); assay: enhancement of HSF1-driven luciferase signal – cell-based, NIH3T3, luminescence, dose retest, confirmation (AID 435004); assay type: functional;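 note: stress induced by proteasome inhibitor MG132 added 30 min after compound; luciferase reporter driven by HSF1 response element in NIH3T3 cells; actives raise luminescence as potentiators of the MG132 stress response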
T8 sequence (P38532 whole entry): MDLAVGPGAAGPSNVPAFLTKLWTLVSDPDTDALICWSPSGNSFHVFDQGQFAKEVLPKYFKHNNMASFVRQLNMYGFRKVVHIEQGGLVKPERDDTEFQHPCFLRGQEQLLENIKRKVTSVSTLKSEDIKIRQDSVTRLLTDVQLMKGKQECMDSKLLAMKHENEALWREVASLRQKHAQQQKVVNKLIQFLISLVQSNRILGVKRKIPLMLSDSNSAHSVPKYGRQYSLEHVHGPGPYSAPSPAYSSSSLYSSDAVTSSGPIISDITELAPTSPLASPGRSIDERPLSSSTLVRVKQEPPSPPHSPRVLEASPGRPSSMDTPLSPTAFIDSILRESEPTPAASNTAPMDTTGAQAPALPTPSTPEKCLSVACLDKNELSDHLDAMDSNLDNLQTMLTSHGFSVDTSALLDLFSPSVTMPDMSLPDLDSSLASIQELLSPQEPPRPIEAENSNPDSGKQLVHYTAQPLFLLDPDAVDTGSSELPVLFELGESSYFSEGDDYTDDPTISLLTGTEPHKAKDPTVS

Sequence of Cytochrome P450 2C19 (P33261 whole entry): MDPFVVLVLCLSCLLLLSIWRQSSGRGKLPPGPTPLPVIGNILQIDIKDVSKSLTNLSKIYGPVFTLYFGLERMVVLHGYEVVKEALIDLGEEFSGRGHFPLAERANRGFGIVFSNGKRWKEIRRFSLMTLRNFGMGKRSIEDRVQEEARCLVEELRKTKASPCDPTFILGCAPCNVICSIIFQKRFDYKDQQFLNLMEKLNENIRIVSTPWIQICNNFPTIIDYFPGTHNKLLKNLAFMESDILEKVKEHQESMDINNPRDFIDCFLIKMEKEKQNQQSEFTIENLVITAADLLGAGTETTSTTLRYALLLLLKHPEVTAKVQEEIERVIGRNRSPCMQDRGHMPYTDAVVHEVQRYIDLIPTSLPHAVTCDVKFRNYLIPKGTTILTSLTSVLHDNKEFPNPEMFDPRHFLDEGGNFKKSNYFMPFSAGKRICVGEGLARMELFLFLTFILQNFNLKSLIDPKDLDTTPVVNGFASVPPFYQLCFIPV

Structure (SMILES): CN(C)C(CNC(=O)NC1CCCCC1)c1cccnc1 (configuration not stated)
- AC50 (Cytochrome P450 2C19): 25.1 µM (inconclusive)
- AC50 (Cytochrome P450 2D6): 31.6 µM (inconclusive)
- EC50 [1]: > 92.5 µM (inactive)
- AC50 (Cytochrome P450 2C9): 0.398 µM (inconclusive)
- EC50 [2]: 0.06 µM (active)
- EC50 [3]: > 92.5 µM (inactive)
- EC50 (Mu-type opioid receptor): > 92.5 µM (inactive)

Structure (SMILES): COc1ccc(/C=C/c2nc3sc4c(c3c(=O)o2)CCC4)cc1
- EC50 [4]: 125 µM (inconclusive)
- EC50 [5]: > 99 µM (inactive)
- EC50 [6]: 46.6 µM (inactive)
- EC50 [7]: 6.97 µM (inconclusive)

Structure (SMILES): O=C(c1ccc(-n2c(SCc3cc(F)ccc3F)nc3ccccc3c2=O)cc1)N1CCOCC1
- IC50 (Cysteine protease ATG4B): 8.7 µM (active)
- IC50 (Phospholipase A2): 11.7 µM (active)

Structure (SMILES): O=C(O)c1ccc(C[n+]2c(-c3ccccc3)csc2Nc2ccccc2)cc1
- IC50 (Cysteine protease ATG4B): 15.1 µM (active)
- IC50 (Phospholipase A2): > 80 µM (inactive)

Structure (SMILES): N#Cc1ccc(-c2cccnc2)nc1SCC(=O)c1ccccc1
- EC50 [5]: 35.9 µM (inactive)
- EC50 [6]: 23.3 µM (inactive)

Structure (SMILES): O=C1CN(C(=O)CSc2nc3cc(Cl)ccc3c(=O)n2Cc2ccccc2)c2ccccc2N1
- AC50 (DNA topoisomerase): 9.89 µM (active)
- CC50 [8]: 46.4 µM (active)

Structure (SMILES): Cc1ccc(C(=O)CNc2cccc(Cl)c2)cc1
- AC50 (DNA topoisomerase): 21.7 µM (active)
- IC50 [9]: 9.87 µM (active)
- EC50 (Beta-galactosidase): > 40 µM (inactive)

Structure (SMILES): NC(=O)c1ccc(C(F)(F)F)n(Cc2cccc(Cl)c2)c1=O
- EC50 [10]: > 260 µM (inactive)
- IC50 (Cysteine protease ATG4B): 26.3 µM (inactive)
- IC50 (Phospholipase A2): 3.93 µM (active)

Structure (SMILES): Cc1ccc(C2=C/C(=C/c3cccs3)C(=O)O2)cc1
- EC50 [5]: 28.2 µM (inactive)
- EC50 [6]: > 99 µM (inactive)
